# Measurements published in PMC4661110 (Bioorganic & medicinal chemistry, 2015).
# What was measured:
# [1] = system: S. aureus Mu50; test: Bacteriostatic effect; format: cell-based; conditions: for MIC fold higher than that of SCA-50: S. aureus Mu50
# [2] = system: S. aureus ATCC 6538; test: Effects of light on bactericidal result; format: cell-based; conditions: 40 µM, 2 hr, dark vs light
# [3] = system: S. aureus Mu50; format: cell-based; conditions: 10 µM, mid-log phase (OD600 ≈ 2.6), first 15 hr
# [4] = system: secretion of α-hemolysin, enterotoxin B, and TSST-1 by S. aureus Mu50; format: cell-based
# [5] = biological target: T1, SaSecA1 (Staphylococcus aureus, UniProt O06446); format: biochemical; conditions: liposomes-oocytes, different concentrations of ATP
# T1 sequence (O06446 1-843): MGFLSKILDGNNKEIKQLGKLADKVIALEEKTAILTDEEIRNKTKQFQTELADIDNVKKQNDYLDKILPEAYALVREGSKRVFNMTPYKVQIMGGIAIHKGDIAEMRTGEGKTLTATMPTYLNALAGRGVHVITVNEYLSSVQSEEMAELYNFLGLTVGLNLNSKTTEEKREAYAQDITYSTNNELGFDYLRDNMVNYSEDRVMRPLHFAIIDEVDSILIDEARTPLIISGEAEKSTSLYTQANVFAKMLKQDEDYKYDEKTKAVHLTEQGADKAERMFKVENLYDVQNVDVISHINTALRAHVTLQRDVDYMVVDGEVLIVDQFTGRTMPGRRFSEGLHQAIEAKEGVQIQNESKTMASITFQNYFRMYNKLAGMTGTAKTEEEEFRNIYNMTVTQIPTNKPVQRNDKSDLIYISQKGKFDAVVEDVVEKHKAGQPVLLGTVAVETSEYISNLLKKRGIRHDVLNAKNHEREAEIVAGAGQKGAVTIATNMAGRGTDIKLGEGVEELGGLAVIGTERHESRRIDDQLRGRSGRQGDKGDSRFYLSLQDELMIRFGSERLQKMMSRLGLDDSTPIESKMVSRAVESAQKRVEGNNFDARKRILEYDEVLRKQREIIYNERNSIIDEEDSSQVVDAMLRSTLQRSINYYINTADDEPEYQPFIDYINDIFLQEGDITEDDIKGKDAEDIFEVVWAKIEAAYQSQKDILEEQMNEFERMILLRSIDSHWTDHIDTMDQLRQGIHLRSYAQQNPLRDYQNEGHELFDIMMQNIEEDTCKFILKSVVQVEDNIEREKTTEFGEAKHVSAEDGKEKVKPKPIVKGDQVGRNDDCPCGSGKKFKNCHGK
# [6] = biological target: T1, SaSecA1; test: Protein pull down assay from whole cell lysate; format: binding; conditions: 400 µM, S. aureus ATCC 6538 lysate, Streptavidin magnetic beads, Western blot
# [7] = system: S. aureus NorA and MepA efflux pump strains; format: cell-based; conditions: confirmed by MIC, Table 3
compound,measurement,setting,value
CN[C@@H](CC(C)C)C(=O)N[C@H]1C(=O)N[C@@H](CC(N)=O)C(=O)N[C@H]2C(=O)N[C@H]3C(=O)N[C@H](C(=O)N[C@@H](C(=O)O)c4cc(O)cc(O)c4-c4cc3ccc4O)[C@H](O)c3ccc(c(Cl)c3)Oc3cc2cc(c3O[C@H]2O[C@@H](CO)[C@H](O)[C@@H](O)[C@@H]2O[C@@H]2C[C@@](C)(N)[C@@H](O)[C@@H](C)O2)Oc2ccc(cc2Cl)[C@H]1O [Vancomycin],MIC fold higher than that of SCA-50,[1],two-fold higher
CO[C@H]1/C=C/O[C@@]2(C)Oc3c(C)c(O)c4c(O)c(c(/C=N/N5CCN(C)CC5)c(O)c4c3C2=O)NC(=O)/C(C)=C\C=C\[C@H](C)[C@H](O)[C@@H](C)[C@@H](O)[C@@H](C)[C@H](OC(C)=O)[C@@H]1C [Rifampicin],MIC fold higher than that of SCA-50,[1],250 fold
CC[C@H]1OC(=O)[C@H](C)[C@@H](O[C@H]2C[C@@](C)(OC)[C@@H](O)[C@H](C)O2)[C@H](C)[C@@H](O[C@@H]2O[C@H](C)C[C@H](N(C)C)[C@H]2O)[C@](C)(O)C[C@@H](C)C(=O)[C@H](C)[C@@H](O)[C@]1(C)O [Erythromycin],MIC fold higher than that of SCA-50,[1],250 fold
NC[C@H]1O[C@H](O[C@H]2[C@H](O)[C@@H](O[C@H]3O[C@H](CO)[C@@H](O)[C@H](N)[C@H]3O)[C@H](N)C[C@@H]2N)[C@H](O)[C@@H](O)[C@@H]1O [Kanamycin],MIC fold higher than that of SCA-50,[1],250 fold
polymyxin B [Polymxin B],"Bacteriostatic effect MIC, S. aureus Mu50 (comparison with antibiotics)","[1]; Table 2, n = 6",31 µg/mL
CCCCCCC1c2ccc(O)cc2Oc2cc(O)ccc21 [SCA-50],effect of light on bactericidal effects,[2],not obviously affected by light
same,MIC,"[1]; Staphylococcus aureus, MU50, read-out: MIC against S. aureus Mu50",12.5 µM
same,OD600 reading compared with control,[3],didn’t obviously change
same,amount of TSST-1 in the supernatant,[4],significantly decreased
same,amount of enterotoxin B in the supernatant,[4],significantly decreased
same,amount of α-hemolysin in the supernatant,[4],significantly decreased
same,amount of extracellular proteins in the supernatant,[4]; 10 µM,reduced the amount of many extracellular proteins
same,manner of inhibition of translocation related ATPase activity of SaSecA1,[5],non-competitive
O=C(CCCC[C@@H]1SC[C@@H]2NC(=O)N[C@@H]21)NCCCCCCC1c2ccc(O)cc2Oc2cc(O)ccc21 [SCA-254],pull down of SaSecA1 from whole cell lysates,[6],could recognize and pull down SaSecA1
"O=C([O-])c1c(Cl)c(Cl)c(Cl)c(Cl)c1-c1c2cc(I)c(=O)c(I)c-2oc2c(I)c([O-])c(I)cc12.[Na+].[Na+] [RB, Rose Bengal]",substrate of NorA efflux pump,[7],substrate of NorA
CC1(C)S[C@@H]2[C@H](NC(=O)[C@H](N)c3ccccc3)C(=O)N2[C@H]1C(=O)O [Ampicillin],MIC fold higher than that of SCA-50,[1],250 fold
